Data set [1] has as its system Meloidogyne spp. (Root-knot nematode). The experiment in a line: Meloidogyne spp. contact activity, preventive, pouch test (cucumber). The settings on record: cucumber seed in pouch, test solutions at 200 ppm, galls per root system after twelve days; cis vs trans isomers. Type of data set: in vivo. How it is done:
(§1) Meloidogyne spp. (Root-knot nematode) contact activity, preventive. Pouch test. Filter papers (9 cm×4.5 cm) with a small pocket were placed into plastic pouches (12 cm×6 cm). One cucumber cv. Toshka seed was placed in the centre of the filter paper pocket of all the pouches needed for a test. The cucumber seeds in the pouches were treated with test solutions at 200 ppm by pipetting the solution directly over the cucumber seed in the filter paper pocket in the pouch. Prior to application, the compound solution was prepared at twice the concentration required and the egg suspension is prepared with FORL nutrient solution with 3000 eggs/0.5 ml. After applying all the treatments, 3000 eggs (in 0.5 ml of FORL nutrient solution) were pipetted into the pouches. The pouches were incubated in a moist chamber for twelve days and watered regularly to maintain good filter paper moisture essential for the growing cucumber root system. After this period, the filter paper containing the germinated cucumber seedling was removed from the plastic pouch to assess the number of galls caused by Meloidogyne spp. per root system. […] Meloidogyne spp. (Root-knot nematode) contact activity, preventive, drench test. Cucumber cv. Toshka seeds were sown directly into pots filled with a sandy substrate. Six days later pots were each treated with 5 ml of a WP10 suspension of the test compound at 20 ppm. Hereafter pots were inoculated with 3000 eggs of M. incognita. The trial was harvested fourteen days after trial application and inoculation. Root galling was assessed according to Zeck's gall index (Zeck, 1971).

Data set [2] has the same test system. The experiment in a line: Meloidogyne spp. contact activity, preventive, drench test (cucumber in pots). It is filed as in vivo, M. incognita. The settings on record: cis vs trans isomers. How it is done: as §1, with “Filter” for “Meloidogyne spp. (Root-knot nematode) contact activity, preventive. Pouch test. Filter”

For orientation: melting point means the temperature of the solid-liquid transition. As to `O=C(N[C@H]1CCC1c1ccc(Cl)cc1Cl)c1ccccc1C(F)(F)F` (stereo partly drawn) [57.009trans], the melting point fell in the range of 147 to 148 °C. Also, the “Nem 1 (Meloidogyne spp. contact activity, preventive, pouch test; % galling)” value in data set [1] amounted to 68%. The “Nem 2 (Meloidogyne spp. contact activity, preventive, drench test; % galling)” value in data set [2] was determined as 48%.
For the molecule `O=C(NC1CCC1c1ccc(Cl)cc1Cl)c1ncccn1` (centres unmarked) [57.012], in data set [1], the “Nem 1 (Meloidogyne spp. contact activity, preventive, pouch test; % galling)” value amounted to 98%. Besides, the “Nem 2 (Meloidogyne spp. contact activity, preventive, drench test; % galling)” value in data set [2] worked out at 83%.
Molecule `O=C(N[C@@H]1CCC1c1ccc(Cl)cc1Cl)c1ccccc1C(F)(F)F` (some centres unmarked) [57.009] gave a melting point of 126 to 128 °C. Moreover, the “Nem 1 (Meloidogyne spp. contact activity, preventive, pouch test; % galling)” value in data set [1] was found to be 100%.
Turning to `O=C(NC1CCC1c1ccc(Cl)cc1Cl)c1cccnc1C(F)(F)F` (centres unmarked) [57.011], in data set [1], the “Nem 1 (Meloidogyne spp. contact activity, preventive, pouch test; % galling)” value stood at 100%. The “Nem 2 (Meloidogyne spp. contact activity, preventive, drench test; % galling)” value in data set [2] is recorded as 100%.
On to `O=C(NC1CCC1c1ccc(Cl)cc1F)c1c(F)cccc1F` (centres unmarked) [57.014], for which, in data set [1], the “Nem 1 (Meloidogyne spp. contact activity, preventive, pouch test; % galling)” value amounted to 93%. The “Nem 2 (Meloidogyne spp. contact activity, preventive, drench test; % galling)” value in data set [2] came to 100%.

The values are drawn from US9414589B2, “N-cyclylamides as nematicides” (SYNGENTA PARTICIPATIONS AG, priority 2012, dated 2016).
